The source of these data is patent US7585875B2, “Substituted pyrazolo[1,5-a]pyridine compounds and their methods of use” (Avigen, Inc., priority 2006, dated 2009).

In series [1] the test system is TNF-α production in LPS-stimulated human peripheral blood mononuclear cells. The series is described as follows: Inhibition of LPS-stimulated TNF-α release from PBMCs. As to conditions: PBMC. The format is cell-based. On the procedure:
(§1) IC50 values were determined for representative compounds of the invention based upon their ability to inhibit LPS-induced cytokine production in human peripheral blood mononuclear cells. Human PBMCs (peripheral blood mononuclear cells) were isolated over a Ficoll gradient from buffy coats obtained from the local Red Cross. 10^6 PBMC cells/well were seeded in 24-well tissue culture plates in RPMI 1640 medium supplemented with 10% human serum, hepes buffer and sodium pyruvate. The cells were treated with 0.1% DMSO (vehicle) or test compounds (1, 10, and 100 uM) 30 minutes prior to activation with LPS (lipopolysaccharide) (E. Coli) at 10 ng/mL. 6-10 hours post LPS stimulation the culture supernatants were collected and levels of cytokines TNF-α and IL-1β were quantified by ELISA (R&D Systems) and/or Luminex (Linco Diagnostics). IC50 calculations were plotted using a nonlinear regression curve fit for exemplary substituted pyrazolo[1,5-a]pyridine compounds of the invention; results are provided in Table 2.

Series [2] deals with phosphodiesterase (PDE) enzyme derived from bovine brain. The series is described as follows: Inhibition of PDE (PDELight kit, cAMP substrate). The format is biochemical. The note with it: PDE from brain extract, cAMP as substrate. On the procedure: In a 96-well plate, phosphodiesterase (PDE) enzyme (0.5-1 mU/well) derived from bovine brain (Sigma) was combined with 5 uM cAMP substrate (Sigma). Test compounds (0-200 uM) or vehicle (0.5% DMSO) were added to the enzyme/substrate and incubated for 1 hour. Using a PDELight® kit (Cambrex), the amount of AMP produced in the reaction from the hydrolysis of cAMP was quantified using PDELight AMP Detection Reagent which converts the AMP directly to ATP. The assay uses luciferase, which catalyses the formation of light from the newly formed ATP and luciferin. The luminescence was read on a Victor Light 1420 luminometer. IC50 calculations were plotted using a nonlinear regression curve fit.

In series [3] the test system is mechanical allodynia after chronic constriction injury (CCI) to the sciatic nerve. Kind of series: Mechanical allodynia by response to von Frey fibers, rat chronic constriction injury (CCI) model. The note with it: 2 hr post dosing. The format is in vivo, male Sprague-Dawley rats. From the text: Chronic Constriction Injury: Heat and cold allodynia responses as well as mechanical allodynia sensations can be evaluated as described below in rats having a chronic constriction injury (CCI). A unilateral mononeuropathy is produced in rats using the chronic constriction injury model described in Bennett et al., Pain (1988) 33:87-107. CCI is produced in anesthetized rats as follows. The lateral aspect of each rat's hind limb is shaved and scrubbed with Nolvasan. Using aseptic techniques, an incision is made on the lateral aspect of the hind limb at the mid-thigh level. The biceps femoris is bluntly dissected to expose the sciatic nerve. On the right hind limb of each rat, four loosely tied ligatures (for example, Chromic gut 4.0; Ethicon, Johnson and Johnson, Somerville, N.J.) are made around the sciatic nerve approximately 1-2 mm apart. On the left side of each rat, an identical dissection is performed except that the sciatic nerve is not ligated (sham). The muscle is closed with a continuous suture pattern with, e.g., 4-0 Vicryl (Johnson and Johnson, Somerville, N.J.) and the overlying skin is closed with wound clips. The rats are ear-tagged for identification purposes and returned to animal housing.
To induce allodynia, male Sprague-Dawley rats underwent chronic constriction injury (CCI) to the sciatic nerve as described by Bennett and Xie, Pain 1988; 33(1):87-107. The plantar surface of the hind paws was stimulated with von Frey filaments (Stoelting) to induce a withdrawal response by blinded personnel. The bending force of fiber required to induce a 50% withdrawal response was calculated following CCI surgery (pre-dosing baseline). N=5-6 allodynic rats received a single intraperitoneal administration of test compound or vehicle. Two hours post-dosing, 50% paw withdrawal threshold was determined again by blinded testers using von Frey filaments. The change in 50% withdrawal threshold relative to pre-dosing baseline is reported in Table 2 for various substituted pyrazolo[1,5-a]pyridine compounds of the invention.

Series [4] has as its system IL-1β production in LPS-stimulated human peripheral blood mononuclear cells. Kind of series: Inhibition of LPS-stimulated IL-1β release from PBMCs. The format is cell-based. As to conditions: PBMC, LPS-stimulated cytokine release from PBMCs. On the procedure: as §1
Where [5] appears, read: LPS-stimulated cytokine release from PBMCs, read-out: TNF-α (IC50).
Setting [6] is: less than or equal to about 50 μM, PBMCs, read-out: IC50, LPS-induced cytokine production (cytokine not specified).

pIC50: −log10 of the molar value. Read-outs that look alike come from different tables or passages of the source. Bounds are passed on as bounds.

What is called pIC50 is −log10 of the IC50, conventionally taken in molar units. For the molecule `CC(C)c1nn2ccccc2c1C(=O)c1ccc(Cl)cc1` [Compound 1007, (4-chlorophenyl)(2-isopropylpyrazolo[1,5-a]pyridin-3-yl)methanone], the pIC50 in series [1] (setting [5]) was 4.89; in series [1] (setting [6]), no less than 4.30; in series [2], less than 3.70; in series [4], 4.53. Also, the “Mechanical Allodynia ΔWT (change from pre-dosing 50% withdrawal threshold)” value in series [3] (10 mg/kg IP) worked out at 0.92 grams.
For the molecule `COc1ccc(C(=O)c2c(C(C)C)nn3ccccc23)cc1` [Compound 1008, (2-isopropylpyrazolo[1,5-a]pyridin-3-yl)(4-methoxyphenyl)methanone], the pIC50 in series [1] (setting [5]) is 4.30; in series [1] (setting [6]), no less than 4.30; in series [2] it was 5.24; in series [4], less than 4.00. Moreover, the “Mechanical Allodynia ΔWT (change from pre-dosing 50% withdrawal threshold)” value in series [3] (10 mg/kg IP) was 0.84 grams.
Consider `CC(C)c1nn2ccccc2c1C(=O)CN` [Compound 1009, 2-amino-1-(2-isopropylpyrazolo[1,5-a]pyridin-3-yl)ethanone], for which the pIC50 in series [1] (setting [5]) was 4.60; in series [1] (setting [6]) it was no less than 4.30; in series [2] it was less than 3.70; in series [4] it was 4.00. In series [3] (10 mg/kg IP), the “Mechanical Allodynia ΔWT (change from pre-dosing 50% withdrawal threshold)” value is reported as 1.15 grams.
Turning to `CC(C)C(=NO)c1c(C(C)C)nn2ccccc12` [Compound 1012, 1-(2-isopropylpyrazolo[1,5-a]pyridin-3-yl)-2-methylpropan-1-one oxime], the pIC50 was less than 4.00 in series [1] (setting [5]), 4.40 in series [2] and 4.00 in series [4]. For the same molecule, the “Mechanical Allodynia ΔWT (change from pre-dosing 50% withdrawal threshold)” value in series [3] (10 mg/kg IP) is on record as 1.56 grams.
Take `CC(C)C(=O)c1c(-c2ccccc2)nn2ccccc12` [Compound 1015, 2-methyl-1-(2-phenylpyrazolo[1,5-a]pyridin-3-yl)propan-1-one]: the pIC50 was less than 4.00 in series [1] (setting [5]), 4.10 in series [2] and less than 4.00 in series [4]. Also, the “Mechanical Allodynia ΔWT (change from pre-dosing 50% withdrawal threshold)” value in series [3] (10 mg/kg IP) is reported as 0.51 grams.
Turning to `CC(C)C(=NO)c1c(-c2ccccc2)nn2ccccc12` [Compound 1016, 2-methyl-1-(2-phenylpyrazolo[1,5-a]pyridin-3-yl)propan-1-one oxime], the pIC50 in series [1] (setting [5]) is less than 4.00; in series [2], 4.12; in series [4], less than 4.00. In addition, in series [3] (10 mg/kg IP), the “Mechanical Allodynia ΔWT (change from pre-dosing 50% withdrawal threshold)” value was determined as 0 grams.
For the molecule `CC(C)C(=O)c1c(-c2ccc(F)cc2)nn2ccccc12` [Compound 1018, 1-(2-(4-fluorophenyl)pyrazolo[1,5-a]pyridin-3-yl)-2-methylpropan-1-one], the pIC50 in series [1] (setting [5]) was 4.49; in series [1] (setting [6]), no less than 4.30; in series [2] it was less than 3.70; in series [4], less than 4.00. In addition, in series [3] (10 mg/kg IP), the “Mechanical Allodynia ΔWT (change from pre-dosing 50% withdrawal threshold)” value is 0 grams.
Turning to `CC(C)C(=O)c1c(-c2ccc(Cl)cc2)nn2ccccc12` [Compound 1024, 1-(2-(4-chlorophenyl)pyrazolo[1,5-a]pyridin-3-yl)-2-methylpropan-1-one], the pIC50 in series [1] (setting [6]) is no less than 4.30; in series [2], 4.74. Also, the “Mechanical Allodynia ΔWT (change from pre-dosing 50% withdrawal threshold)” value in series [3] (10 mg/kg IP) worked out at 0.43 grams.
On to `CC(C)C(=O)c1c(C(C)C)nn2ccccc12` [compound 411, 3-isobutyryl-2-isopropylpyrazolo[1,5-a]pyridine, reference compound], for which the pIC50 in series [1] (setting [5]) is 5.30; in series [2] it was 4.99; in series [4] it was 4.75. In series [3] (10 mg/kg IP), the “Mechanical Allodynia ΔWT (change from pre-dosing 50% withdrawal threshold)” value is 2.31-3.53 grams.
In the case of `CC(C)c1nn2ccccc2c1C(=O)C(C)(C)O` [compound 1004, 2-hydroxy-1-(2-isopropylpyrazolo[1,5-a]pyridin-3-yl)-2-methylpropan-1-one], the pIC50 in series [1] (setting [5]) is 4.54; in series [1] (setting [6]) it was no less than 4.30; in series [2], 4.90; in series [4] it was less than 4.00. In series [3] (10 mg/kg IP), the “Mechanical Allodynia ΔWT (change from pre-dosing 50% withdrawal threshold)” value stood at 0.48 grams.
Consider `COc1ccc2c(C(=O)C(C)C)c(C(C)C)nn2c1` [compound 1005, 1-(2-isopropyl-6-methoxypyrazolo[1,5-a]pyridin-3-yl)-2-methylpropan-1-one], for which the pIC50 is 4.12 in series [1] (setting [5]) and 4.23 in series [2]. In addition, in series [3] (10 mg/kg IP), the “Mechanical Allodynia ΔWT (change from pre-dosing 50% withdrawal threshold)” value came to 0.17 grams.
With `CC(C)C(=O)c1c(C(C)C)nn2cc(O)ccc12` [compound 1006, 1-(6-hydroxy-2-isopropylpyrazolo[1,5-a]pyridin-3-yl)-2-methylpropan-1-one], the pIC50 is 5.89 in series [1] (setting [5]), no less than 4.30 in series [1] (setting [6]), 4.53 in series [2] and 4.83 in series [4]. Moreover, the “Mechanical Allodynia ΔWT (change from pre-dosing 50% withdrawal threshold)” value in series [3] (10 mg/kg IP) was 0 grams.
Turning to `CC(N)C(=O)c1c(C(C)C)nn2ccccc12` (stereo not shown) [compound 1013, 2-amino-1-(2-isopropylpyrazolo[1,5-a]pyridin-3-yl)propan-1-one], the pIC50 in series [1] (setting [5]) was 4.87; in series [1] (setting [6]), no less than 4.30; in series [2] it was less than 3.70; in series [4] it was less than 4.00. Further, the “Mechanical Allodynia ΔWT (change from pre-dosing 50% withdrawal threshold)” value in series [3] (10 mg/kg IP) is on record as 10 mg/kg: 1.04 grams; in series [3] (20 mg/kg IP) it was 20 mg/kg: 1.33 grams; in series [3] (25 mg/kg PO) it was 25 mg/kg PO: 1.39 grams; in series [3] (40 mg/kg IP) it was 40 mg/kg: 3.16 grams.
Regarding `CC(C)C(=NOC(N)=O)c1c(C(C)C)nn2ccccc12` [compound 1014, 1-(2-isopropylpyrazolo[1,5-a]pyridin-3-yl)-2-methylpropan-1-one O-carbamoyl oxime], the pIC50 was 5.89 in series [1] (setting [5]), no less than 4.30 in series [1] (setting [6]), 4.00 in series [2] and 6.00 in series [4]. Also, the “Mechanical Allodynia ΔWT (change from pre-dosing 50% withdrawal threshold)” value in series [3] (10 mg/kg IP) was 10 mg/kg: 2.18 grams; in series [3] (20 mg/kg IP), 20 mg/kg: 3.73 grams.
Consider `CC(C)C(=NO)c1c(-c2ccc(F)cc2)nn2ccccc12` [compound 1019, 1-(2-(4-fluorophenyl)pyrazolo[1,5-a]pyridin-3-yl)-2-methylpropan-1-one oxime], for which the negative-log IC50 (pIC50) in series [1] (setting [5]) was less than 4.00; in series [2], 4.40; in series [4], less than 4.00. Also, in series [3] (10 mg/kg IP), the “Mechanical Allodynia ΔWT (change from pre-dosing 50% withdrawal threshold)” value is 1.4 grams.
The melting point is the temperature of the solid-liquid transition. For `CC(C)C(=O)c1c(C2CC2)nn2ccccc12` [compound 1050, 1-(2-cyclopropylpyrazolo[1,5-a]pyridin-3-yl)-2-methylpropan-1-one], the melting point was in the range of 108 to 109 °C. Further, the “Mechanical Allodynia ΔWT (change from pre-dosing 50% withdrawal threshold)” value in series [3] (10 mg/kg IP) worked out at 0 grams.
`CC(CN1CCCCC1)C(=O)c1c(C(C)C)nn2ccccc12.Cl` (stereo not shown) [compound 1063, 1-(2-isopropylpyrazolo[1,5-a]pyridin-3-yl)-2-methyl-3-(piperidin-1-yl)propan-1-one hydrochloride] registered a melting point of 166 to 167 °C. Also, the “Mechanical Allodynia ΔWT (change from pre-dosing 50% withdrawal threshold)” value in series [3] (10 mg/kg IP) is given as 0 grams.
With `CC(CN)C(=O)c1c(C(C)C)nn2ccccc12.Cl` (stereo not shown) [compound 1065, 3-amino-1-(2-isopropylpyrazolo[1,5-a]pyridin-3-yl)-2-methylpropan-1-one hydrochloride], the melting point is 110 to 115 °C. In addition, the “Mechanical Allodynia ΔWT (change from pre-dosing 50% withdrawal threshold)” value in series [3] (10 mg/kg IP) came to 0.91 grams.
